Measured values taken from PubChem BioAssay (NCI).
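A five-concentration, 48-hour dose response in 96-well plates underlies each endpoint, interpolated linearly between surrounding concentrations. Here, GI50 denotes the concentration required for 50% inhibition of growth. TGI: concentration producing complete growth inhibition.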

What was measured:
Test in all cases: inhibition of tumour cell growth, NCI panel, 48 h
A549 NSCLC = tested on: A549 NSCLC
HCC-2998 colon = tested on: HCC-2998 colon
SK-MEL-28 melanoma = tested on: SK-MEL-28 melanoma
SK-MEL-5 melanoma = tested on: SK-MEL-5 melanoma
OVCAR-4 ovarian = tested on: OVCAR-4 ovarian
SW-620 colon = tested on: SW-620 colon
SK-MEL-2 melanoma = tested on: SK-MEL-2 melanoma
M14 melanoma = tested on: M14 melanoma
IGROV1 ovarian = tested on: IGROV1 ovarian
UACC-257 melanoma = tested on: UACC-257 melanoma

Row | SMILES | TGI (A549 NSCLC) | TGI (HCC-2998 colon) | TGI (SK-MEL-28 melanoma) | TGI (SK-MEL-5 melanoma) | TGI (OVCAR-4 ovarian) | TGI (SW-620 colon) | TGI (SK-MEL-2 melanoma) | TGI (M14 melanoma) | TGI (IGROV1 ovarian) | TGI (UACC-257 melanoma) | GI50 (A549 NSCLC) | GI50 (HCC-2998 colon) | GI50 (SK-MEL-28 melanoma) | GI50 (SK-MEL-5 melanoma) | GI50 (OVCAR-4 ovarian) | GI50 (SW-620 colon) | GI50 (SK-MEL-2 melanoma) | GI50 (M14 melanoma) | GI50 (IGROV1 ovarian) | GI50 (UACC-257 melanoma)
1 | O=C(O)CS(=O)c1ccc2c3c(cccc13)C(=O)c1ccccc1-2 (configuration not stated) | > 100 µM | > 100 µM | > 100 µM | > 100 µM | > 100 µM | > 100 µM | > 100 µM | > 100 µM | > 100 µM | > 100 µM | – | – | – | – | – | – | – | – | – | –
2 | O=C(Nc1ccc(Cl)cc1)c1cccc([N+](=O)[O-])c1O | > 100 µM | 14.4 µM | 39.6 µM | 4.86 µM | > 100 µM | > 100 µM | 12.5 µM | 32.9 µM | > 80.3 µM | 8.13 µM | – | – | – | – | – | – | – | – | – | –
3 | COc1cc(C(=O)O[C@H](C(=O)NCCNC(=O)[C@@H](OC(=O)c2cc(OC)cc3c(C)cccc23)[C@]2(C)CO2)[C@]2(C)CO2)c2cccc(C)c2c1 | 1.25 µM | 2.49 µM | – | 0.28 µM | > 100 µM | > 100 µM | – | 0.696 µM | 5.28 µM | 0.343 µM | < 0.0428 µM | 0.0953 µM | 0.0524 µM | 0.0331 µM | 0.125 µM | < 0.01 µM | < 0.0461 µM | 0.178 µM | < 0.0475 µM | –
4 | NC(Cc1ccccc1)=NCC(=O)O | > 100 µM | > 100 µM | > 100 µM | > 100 µM | > 100 µM | > 100 µM | > 100 µM | > 100 µM | > 100 µM | > 100 µM | – | – | – | – | – | – | – | – | – | –
5 | O=C(Nc1ccc(-n2cc(-c3ccncc3)c(-c3ccc(O)c(Cl)c3)n2)cc1)c1cc(Cl)cc(Cl)c1 | > 32.5 µM | > 32.5 µM | > 32.5 µM | 6.85 µM | > 32.5 µM | > 32.5 µM | 2.94 µM | 1.68 µM | > 32.5 µM | > 32.5 µM | 2.86 µM | 11.8 µM | 3.19 µM | 0.877 µM | 2.56 µM | 2.21 µM | 0.899 µM | 0.712 µM | > 32.5 µM | 13.8 µM
6 | C\C=C/C=C/C=C/C(=O)O | > 100 µM | > 100 µM | > 100 µM | > 100 µM | > 100 µM | > 100 µM | > 100 µM | > 100 µM | > 100 µM | > 100 µM | – | – | – | – | – | – | – | – | – | –
